# Patent publication US12048711B2, “Composition and use thereof in the manufacture of medicament for treating cancer” (priority 2020, dated 2024)
# Experiments:
# [1] = test system: liver cancer cell line HepG2; colorectal cancer cell line LoVo, HT29, SW620, SW480; experiment: MTT cell growth inhibition, Apatinib alone and with Sotagliflozin; format: cell-based; settings: Apatinib alone 5-30 μM, 48 hours, FIG. 4-a-1 to 4-a-5
# Excerpt: After obtaining the effectiveness of […] in Example 1, the present disclosure further validated another VEGFR-targeting TKI drug, Apatinib. According to the tissue distribution characteristics of VEGFR and SGLT1/2, the targets of Apatinib and Sotagliflozin, the followings cells were selected for experimental verification: liver cancer cell line HepG2; colorectal cancer cell line LoVo, HT29, SW620, SW480; cervical cancer HeLa; ovarian cancer SKOV3; gastric cancer NGC27; cholangiocarcinoma RBE; esophageal cancer KYSE3. After growing to 80% density, the cells were trypsinized, passaged and plated in a 96-well plate with 5000 cells per well. After 24 hours, the medium was replaced with a medium containing the corresponding concentration of Apatinib, Sotagliflozin, or the combination of Apatinib and Sotagliflozin. After 48 hours, the absorbance at each concentration was detected by the MTT method. The experiment included the following groups: Control group: cells were cultured in normal culture medium without drug added. […] The cell growth inhibition rate is calculated by dividing the absorbance value at each concentration by the absorbance value of the control group. […] In the figure, the concentration of Apatinib is taken as the abscissa and the cell growth inhibition rate is taken as the ordinate.
# [2] = test system: Liver cancer cell line HepG2; experiment: IC50 determination of Apatinib+Sotagliflozin combination on HepG2; format: cell-based; settings: Homo sapiens, single agent, cell survival rate after 2 h incubation, read-out: IC50 value on HepG2 cells
# Excerpt: After obtaining the effectiveness of […] in Example 1, the present disclosure further validated another VEGFR-targeting TKI drug, Apatinib. According to the tissue distribution characteristics of VEGFR and SGLT1/2, the targets of Apatinib and Sotagliflozin, the followings cells were selected for experimental verification: liver cancer cell line HepG2; colorectal cancer cell line LoVo, HT29, SW620, SW480; cervical cancer HeLa; ovarian cancer SKOV3; gastric cancer NGC27; cholangiocarcinoma RBE; esophageal cancer KYSE3. After growing to 80% density, the cells were trypsinized, passaged and plated in a 96-well plate with 5000 cells per well. […] After 48 hours, the absorbance at each concentration was detected by the MTT method. […]
# Apatinib test group (FIG. 4-b-1): cells were treated by adding Apatinib alone at 6 different concentrations, 0 μM, 5 μM, 10 μM, 20 μM, 30 μM and 40 μM, respectively, to the culture medium, and cell survival rate was measured after 2 h incubation.
# Sotagliflozin test group (FIG. 4-b-2): cells were treated by adding Sotagliflozin alone at 7 different concentrations, 0 μM, 20 μM, 30 μM, 40 μM, 60 μM, 80 μM and 100 μM respectively, to the culture medium, and cell survival rate was measured after 2 h incubation. […]
# lung cancer A549 cells [3] = experiment: A549 xenograft tumor treatment trial in nude mice; format: in vivo, Balbc nude mice; settings: for Average tumor volume: in mm³ (unit assumed)
# Experimental: After growing to the logarithmic phase, A549 cells were collected and resuspended in serum-free DMEM medium to 5×10^7 cells per ml. Each mouse was inoculated with 100 μl of 5×10^6 cells, and the tumor size was measured 19 days later. Mice were grouped according to the tumor size, and the average tumor size in each group was the same. Mice were administered after grouping. […] The dosage of Gefitinib was 100 mg per kilogram according to the reported dose for the treatment of A549 xenografts in previous studies. The two drugs were administered by gavage, consistent with the current oral mode in clinical use. The dosing cycle was once every two days. The tumor size was measured every two days. After 40 days of administration, the test was ended, and the tumor was removed and weighed.
# lung cancer A549 cells [4] = experiment: Trypan blue staining of A549 cells treated with Gefitinib in sugar-free and sugar-containing medium; format: cell-based; settings: 20 μM Gefitinib, 48 hours
# Experimental: […]. A549 cells were grown to 80% density, passed, resuspended in a normal medium (25 mM glucose) to a concentration of 4×10^5 cells per ml, and plated in a 24-well plate with 1 ml per well. After 24 hours, the medium was changed to sugar-free medium (0 mM glucose) and normal medium, respectively, and added with Gefitinib for treating the cell. After 48 hours, the medium was discarded, and 1 ml of 1×PBS was added to wash once, and 1 ml of 1×Trypan Blue was added to each well for staining for 10 minutes. Then, the trypan blue staining solution was aspirated, and the plate was washed three times by adding 1 ml of 1×PBS, and photographed under a light microscope. […] […]. […] According to the background section, cancer cells mainly rely on the SGLT family of proteins to absorb sugar. Therefore, the present disclosure relates use of a composition comprising dual inhibitor Sotagliflozin of SGLT1 and SGLT2, the two most important members of the SGLT family highly expressed in cancer cells, and a tyrosine kinase inhibitor in the manufacture of a medicament for treating cancer.
# . Based on the previous findings illustrated in FIG. 1, Sotagliflozin was purchased from Selleck Chemicals for growth inhibition test of cancer cell in vitro. […] Therefore, the concentration of Sotagliflozin used in the subsequent compositions of this experiment were lower than 80 μM to avoid affecting normal cells.
# [5] = test system: liver cancer HepG2 cells, colorectal cancer LoVo, HT29, DLD1, SW480, and HCT116 cells; experiment: Growth inhibition by Lenvatinib alone and with Sotagliflozin in a variety of cell lines; format: cell-based; settings: addition of Sotagliflozin at a safe dose; FIG. 5
# Excerpt: Therefore, the effect of the combination in the safe concentration range of Sotagliflozin is better than the effect of each single agent. It is worth mentioning that the ability of Sotagliflozin in the combination to enhance the efficacy of VEGFR-targeting TKI drugs is not limited to a single drug of Apatinib.
# [6] = test system: Lung cancer cell line A549; experiment: IC50 determination of EGFR inhibitor + Sotagliflozin combination on A549; format: cell-based; settings: Homo sapiens, single agent, cell survival rate after 1 h incubation, read-out: IC50 value on A549 cells
# Experimental: After growing to 80% density, the cells were trypsinized, passaged and plated in a 96-well plate with 5000 cells per well. After 24 hours, the medium was replaced with a medium containing the corresponding concentration of drug. After 48 hours, the absorbance at each concentration was detected by the MTT method.
# [7] = test system: normal human umbilical cord epithelial cells; experiment: Determination of the safe concentration of Sotagliflozin on normal cells; format: cell-based
# Experimental: The killing effect of Gefitinib on lung cancer A549 cells cultured in sugar-free medium and sugar-containing medium 48 hours after treating A549 cells with 20 μM Gefitinib, trypan blue staining was used to distinguish live cells from dead cells which were stained blue by trypan blue. Based on the previous findings illustrated in FIG. 1, Sotagliflozin was purchased from Selleck Chemicals for growth inhibition test of cancer cell in vitro. […] Therefore, the concentration of Sotagliflozin used in the subsequent compositions of this experiment were lower than 80 μM to avoid affecting normal cells.
# [8] = A549 tumor-bearing mice, gavage once every two days, 40 days, Sotagliflozin 30 mg/kg, Gefitinib 100 mg/kg
compound,measurement,setting,value
N#CC1(c2ccc(NC(=O)c3cccnc3NCc3ccncc3)cc2)CCCC1 [Apatinib],inhibitory effect on tumor cells (cell growth inhibition rate),[1],limited
same,IC50,[2],46 µM
COc1cc2ncnc(Nc3ccc(F)c(Cl)c3)c2cc1OCCCN1CCOCC1 [Gefitinib],Tumor volume ratio of each group to the control group,"lung cancer A549 cells [3]; mouse, in vivo",0.4881
same,effectiveness evaluation,"lung cancer A549 cells [3]; mouse, in vivo",ineffective
same,Average tumor volume,"lung cancer A549 cells [3]; mouse, in vivo",504.8
same,trypan blue staining (dead cells stained blue),lung cancer A549 cells [4]; normal medium (25 mM glucose),almost no blue coloration
same,trypan blue staining (dead cells stained blue),lung cancer A549 cells [4]; sugar-free medium (0 mM glucose),"almost all colored blue, indicating dead cells"
COc1cc2nccc(Oc3ccc(NC(=O)NC4CC4)c(Cl)c3)c2cc1C(N)=O [Lenvatinib],effect of adding Sotagliflozin on inhibitory effect of Lenvatinib,[5],enhanced the inhibitory effect
CCOc1ccc(Cc2cc([C@@H]3O[C@H](SC)[C@@H](O)[C@H](O)[C@H]3O)ccc2Cl)cc1 [Sotagliflozin],inhibition of tumor growth (in words),"lung cancer A549 cells [3]; A549 tumor-bearing mice, FIG. 7-a to 7-c",can inhibit tumor growth
same,Tumor growth inhibition rate,lung cancer A549 cells [3]; [8],58.4%
same,Tumor volume ratio of each group to the control group,lung cancer A549 cells [3]; [8],0.416
same,Average tumor volume,lung cancer A549 cells [3]; [8],430.3
same,effectiveness evaluation,lung cancer A549 cells [3]; effective if tumor growth inhibition rate greater than 60% and p value less than 0.05,ineffective
same,IC50,[6],73 µM
same,concentration mainly exhibiting cell growth inhibition effect,[7],lower than 80 μM
same,concentration producing great cytotoxicity,[7],higher than 80 μM
same,IC50,[2],116 µM
